The values that follow come from patent EP0732331A1, “Novel benzothiophene compounds and methods for inhibiting lipoxygenase and leukotrienes” (ELI LILLY AND COMPANY, priority 1995, dated 1996).

Like-named read-outs stand apart in the source and are kept apart here.

In assay [1] the test system is production of leukotriene B4 (LTB4). Put plainly: Inhibition of Eicosanoid Production by Plasma-depleted Blood: LTB4. The class given is cell-based. The note with it: Homo sapiens, read-out: LTB4. How it is done: (§1) Compounds are evaluated for their ability to inhibit production of leukotriene B4 (LTB4) and thromboxane B2 (TxB2) upon stimulation of human plasma-depleted blood with formyl-methionyl-leucyl-phenylalanine (FMLP) and thrombin. LTB4 is produced by neutrophils and TxB2 by platelets stimulated at their respective receptors with FMLP and thrombin. The assay is carried out in 1 ml deep well polypropylene 96-well plates (Beckman). For the test, ten ml of blood is collected in EDTA at a final concentration of 1.5 mg/ml. Then, 40 ml glucose phosphate buffer containing 0.1% gelatin is added and the suspension centrifuged at 900 g for 10 minutes at room temperature. The supernatant is discarded and the cells washed once with 50 ml buffer before resuspending them in 50 ml Krebs-Ringers-Henseleit Buffer containing 0.1% gelatin, 1 mM CaCl2, 1.1 mM MgCl2 (KRH buffer). Working solutions of test compounds are made by dissolving the material in DMSO at 10 mM and diluting with appropriate amounts of KRH buffer. An agonist solution is made containing 1 µM FMLP (sigma) and 10 units/ml of thrombin in KRH buffer (Enzyme Research Labs). The blood cell suspension is first warmed to 37° C for 5 minutes and then mixed with cytochalasin B (sigma) at a final concentration of 2 µg/ml. In each well, 200 µl of the compound solution is incubated with 250 µl of the blood cell, cytochalasin B suspension at 37° C for 10 min. Stimulation of eicosanoid production is begun by adding 50 µl of the agonist solution. The mixture is then incubated for 2 min. before stopping the reaction by adding 50 µl of a solution containing 275 mM EDTA, 110 µM indomethacin (sigma) and 110 µM of the 5-lipoxygenase inhibitor, N-hydroxy-N-[3-[2-(2-propynylthio)phenyl]-2-propenyl]urea. Subsequently, the plate is centrifuged and an aliquot of the supernatant fluid removed for analysis of the eicosanoid content. The amount of LTB4 and TxB2 produced is determined by the use of a competitive enzyme immunoassay using commercial reagents from Cayman Chemical.

The test system of assay [2] is production of thromboxane B2 (TxB2). Briefly: Inhibition of Eicosanoid Production by Plasma-depleted Blood: TxB2. The class given is cell-based. The note with it: Homo sapiens, read-out: TxB2. How it is done: as §1
Assay [3] has as its system production of LTC4 by the cytokine dependent mast cell line MCII. Briefly: MCII Mast Cell LTC4 Assay. It is filed as cell-based, mouse. The settings on record: read-out: LTC4. The text has this:
This assay measures the production of LTC4 by the cytokine dependent mast cell line MCII, stimulated by cross linking the high affinity Fc receptor for IgE (FcεR1).
The bone marrow derived, cytokine dependent mouse mast cell line MCII (Lilly Research Laboratories) is maintained in log phase growth in complete Dulbecco's' Modified Eagles Medium (GIBCO BRL) supplemented with fetal bovine serum (Hyclone), gentamicin, penicillin and streptomycin (GIBCO BRL) and using concanavalin A (ICN ImmunoBiologicals) induced culture supernatants from the mouse helper T cell clone D10.G4 (ATCC TIB 224) as a source of mast cell growth factors. The MCII cells are passively sensitized with mouse monoclonal IgE by incubation with an appropriate dilution of IgEL b4 (ATCC TIB 141) antibody ascites at 37° C for 60 minutes and then washed with Hank's Balanced Salt Solution (GIBCO BRL) to remove unbound IgE. The sensitized cells are then preincubated with drug in complete media for 10 minutes at 37° C in 96 well polypropylene plates (Costar). Each drug concentration is tested in triplicate at half log dilutions. The drug vehicle is dimethyl sulfoxide which is present at a final concentration of 0.32% in all wells.
There are 40,000 MCII cells per well in a final volume of 200 µl complete medium. The stimulated cells are incubated at 37° C for 10 minutes and then LTC4 production is stopped by addition of 25 µl of 180 mM EDTA to chelate extracellular Ca^++.
The amount of LTC4 produced is determined in a competitive enzyme immunoassay (EIA) using commercial reagents purchased from Cayman Chemical Co. In the EIA, free LTC4 in the sample competes with enzyme conjugated LTC4 for binding to immobilized anti-LTC4 antibody. The enzyme conjugated to LTC4 is acetylcholinesterase and Elman's reagent is the substrate for the enzyme. The concentration of LTC4 in the unknown sample is determined using a 4-parameter quadratic analysis of a standard curve generated by measuring the optical density resulting from the addition of known amounts of LTC4 to the EIA.
The positive control on each plate is stimulated MCII cells with dimethyl sulfoxide vehicle alone and the negative control is the same reaction mixture without cells. The background negative control value is subtracted from experimental and positive control values and the data are reported as percent of positive control.

The test system of assay [4] is MCII cells. Put plainly: MCII Mast Cell Toxicity Assay (XTT). The settings on record: Mus musculus, read-out: Toxicity. It is filed as cell-based. The text has this: This toxicity assay is run in parallel with the MCII mast cell LTC4 assay and serves as an indicator of compound effects on the viability and metabolic activity of the MCII cells. This "toxicity" assay is based on the ability of dehydrogenase enzymes present in viable metabolically active cells to bioreduce the tetrazolium salt XTT yielding a colored, water soluble formazan product. (see, Roehm et al.) "An improved colorimetric assay for cell proliferation and viability utilzing the tetrazolium salt XTT. J. Immunol. Methods 142:257-65 (1991).
A duplicate polystyrene 96-well tissue culture plate (Costar) is set up with sensitized MCII cells, EM95 ascites, media and dilutions of the test compound as described above. The complete media is supplemented with concanavalin A induced culture supernatants from the mouse helper T cell clone D10.G4, as a source of mast cell growth factors.
Wells of the toxicity assay plate are pulsed with 25 µl XTT (Sigma) plus phenazine methosulfate (Aldrich) giving a final concentration of 0.2 mg/ml XTT and 25 µM phenazine methosulfate. The plates are incubated at 37° C in 10% CO2 for 4-12 hours and then production of the XTT formazan product determined by measuring the optical density of the wells at a wavelength of 450 nm. The positive control on each plate is stimulated MCII cells with dimethyl sulfoxide vehicle alone and the negative control is the same reaction mixture without cells. The background negative control value is subtracted from experimental and positive control values and the data are reported as percent of positive control.
On the technique in general: Tetrazolium assays rely on reduction of a dye to a coloured formazan, in cell work by metabolically active cells.

Assay [5] has as its target T1, cytosolic 5-lipoxygenase (Homo sapiens, UniProt P09917).
T1 construct: Cells are disrupted with sonication and the cytosolic fraction obtained by centrifugation at 20,000 x g; from tissue; host or cells: human peripheral blood neutrophils, 20,000 x g cytosolic supernatant
T1 sequence (P09917 1-674): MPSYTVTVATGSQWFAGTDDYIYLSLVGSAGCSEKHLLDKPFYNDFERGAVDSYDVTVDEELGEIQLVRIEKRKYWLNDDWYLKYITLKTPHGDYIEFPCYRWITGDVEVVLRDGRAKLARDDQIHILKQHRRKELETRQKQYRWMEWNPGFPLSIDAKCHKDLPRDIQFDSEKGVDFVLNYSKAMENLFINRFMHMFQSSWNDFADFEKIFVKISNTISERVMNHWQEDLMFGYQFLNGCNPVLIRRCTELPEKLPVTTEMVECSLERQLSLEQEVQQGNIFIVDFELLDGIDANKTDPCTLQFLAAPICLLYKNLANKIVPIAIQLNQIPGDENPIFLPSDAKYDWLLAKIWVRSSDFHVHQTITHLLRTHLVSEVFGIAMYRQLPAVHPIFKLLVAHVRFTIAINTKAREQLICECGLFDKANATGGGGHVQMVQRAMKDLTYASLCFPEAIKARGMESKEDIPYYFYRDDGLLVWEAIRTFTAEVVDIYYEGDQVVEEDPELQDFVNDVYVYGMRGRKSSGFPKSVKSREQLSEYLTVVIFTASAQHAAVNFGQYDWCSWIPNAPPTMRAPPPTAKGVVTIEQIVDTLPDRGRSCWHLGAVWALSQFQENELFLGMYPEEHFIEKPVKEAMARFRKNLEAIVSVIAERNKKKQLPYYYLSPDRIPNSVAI
Briefly: 5-Lipoxygenase (5-LPO) Assay. It is filed as biochemical. The note with it: inhibition of leukotriene B4; human neutrophil 20,000 x g supernatant; 5 minutes at 37°C.
Description: To determine the effect of compounds on 5-lipoxygenase activity, peripheral blood neutrophils are separated by density centrifugation as described (Marder et al., Prostaglandins Leukot. and Essent. Fatty Acids 46 , 265-270, 1992) and the cytosolic 5-lipoxygenase is prepared from isolated neutrophils according to a modification of Carter et al., (J. Pharmacol. Exp. Ther. 256 , 929-937 (1991)). Briefly, neutrophils are washed twice in buffer (in millimolar: PIPES, 10; BES, 10; and EDTA, 1; pH 6.8) and diluted to 2.5 x 10^7 cells/ml. Cells are disrupted with sonication and the cytosolic fraction obtained by centrifugation at 20,000 x g for 20 min. at 4°C. The resultant supernatant containing the cytosolic 5-lipoxygenase activity is stored frozen at -70°C prior to use. Compounds are evaluated for 5-lipoxygenase inhibitory activity. Varying concentration of compounds in 200 ml aliquots containing 50 ml of human 20,000 x g supernatant in assay buffer (in millimolar: PIPES, 10; BES, 10; EDTA, 1; NaCl, 100; ATP, 1.56; and CaCl2,, 2.5; pH 6.8) containing 3.0 mM AA are used. The reaction proceeds for 5 minutes at 37°C and is terminated upon the addition of 50 ml EDTA (250 mM). The percent inhibition of leukotriene B4 is determined for each concentration of test compound as compared to vehicle (containing no compound) control. […] Leukotriene B4 is determined by EIA.

The target of assay [6] is T2, cPLA2 (Homo sapiens, UniProt P47712).
T2 sequence (P47712 1-749): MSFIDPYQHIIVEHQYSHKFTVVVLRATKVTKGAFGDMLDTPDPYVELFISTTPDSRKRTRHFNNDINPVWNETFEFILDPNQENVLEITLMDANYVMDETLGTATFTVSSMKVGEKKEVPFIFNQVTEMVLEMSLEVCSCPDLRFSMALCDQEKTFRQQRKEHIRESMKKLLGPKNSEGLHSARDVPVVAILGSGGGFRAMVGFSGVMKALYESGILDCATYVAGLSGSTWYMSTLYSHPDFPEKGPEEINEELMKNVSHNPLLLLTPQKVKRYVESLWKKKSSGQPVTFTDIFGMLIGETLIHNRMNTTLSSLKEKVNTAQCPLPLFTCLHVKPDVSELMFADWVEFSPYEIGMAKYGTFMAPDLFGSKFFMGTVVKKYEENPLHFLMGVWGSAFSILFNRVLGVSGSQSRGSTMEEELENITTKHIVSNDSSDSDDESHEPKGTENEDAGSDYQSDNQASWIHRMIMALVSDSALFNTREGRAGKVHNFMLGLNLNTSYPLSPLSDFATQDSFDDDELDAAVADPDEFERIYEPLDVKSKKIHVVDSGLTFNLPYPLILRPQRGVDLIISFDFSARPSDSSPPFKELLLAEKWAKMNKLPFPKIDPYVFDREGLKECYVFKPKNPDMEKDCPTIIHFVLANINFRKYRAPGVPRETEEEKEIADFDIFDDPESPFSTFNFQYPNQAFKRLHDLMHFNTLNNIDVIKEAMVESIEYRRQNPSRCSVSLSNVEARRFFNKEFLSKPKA
Briefly: Chromogenic cPLA2 enzyme assay. It is filed as biochemical. The settings on record: C-PLA2 Enzyme.

[7] abbreviates: MCII Mast Cell, IgE-sensitized, stimulated with anti-mouse IgE EM95.
[8] abbreviates: MCII Mast Cell, XTT reduction, 4-12 hours.
The mark [9] stands for this setting: Plasma DPLTD Blood, stimulated with FMLP and thrombin.

For `O=C(c1ccc(O)cc1)c1c(-c2ccc(O)cc2)sc2cc(O)ccc12` [Compound D], the IC50 was 1600 nM in assay [1] and above 9.8 µM in assay [2].

With `Cc1cccc(C(=O)c2c(-c3ccc(O)cc3)sc3cc(O)ccc23)c1` [Example 10], the IC50 in assay [3] (Mus musculus, Mast cell) came to 1100 ± 200 nM.

As for `O=C(c1ccc2ccccc2c1)c1c(-c2ccc(O)cc2)sc2cc(O)ccc12` [Example 3, 6-hydroxyphenyl-2-(p-hydroxyphenyl)-(benzo(B)thien-3-yl)(β-napthyl)methanone], the IC50 is 3900 ± 1800 nM in assay [3] (setting [7]), above 10 µM in assay [4] (setting [8]), 200 nM in assay [1] (setting [9]) and 1.4 µM in assay [2] (setting [9]).

For the molecule `COc1ccc(C(=O)c2c(-c3ccc(OC)cc3)sc3cc(OC)ccc23)cc1` [Compound C], the IC50 in assay [5] was above 10 µM; in assay [3] (setting [7]) it was 6700 ± 3000 nM; in assay [1] (setting [9]) it was 1500 ± 400 nM; in assay [2] (setting [9]) it was 2 ± 0.6 µM.

For `O=C(c1ccc(-c2ccccc2)cc1)c1c(-c2ccc(O)cc2)sc2cc(O)ccc12` [Example 1], the IC50 is 4400 nM in assay [3] (setting [7]), above 10 µM in assay [4] (setting [8]), 2200 ± 400 nM in assay [1] (setting [9]) and 2.4 ± 1.2 µM in assay [2] (setting [9]).

Regarding `Oc1ccc(-c2cc3ccc(O)cc3s2)cc1` [Compound B], the IC50 in assay [6] is above 200 µM; in assay [3] (setting [7]) it was 700 nM; in assay [4] (setting [8]), below 10 µM; in assay [1] (setting [9]) it was 800 nM; in assay [2] (setting [9]), 3.3 µM.

As for `CC(C)(C)c1ccc(C(=O)c2c(-c3ccc(O)cc3)sc3cc(O)ccc23)cc1` [Example 8], the IC50 in assay [3] (setting [7]) came out at 3500 ± 2100 nM.

Take `CC(c1cc2ccccc2s1)N(O)C(N)=O` (stereo not shown) [Zileuton, (I)-N-(1-benzo[B]thien-2-ylethyl)-N-hydroxyurea, reference compound]: the IC50 in assay [3] (Mus musculus, Mast cell) is 500 ± 300 nM.

For `Cc1ccc(C(=O)c2c(-c3ccc(O)cc3)sc3cc(O)ccc23)cc1` [Example 9], the IC50 in assay [3] (Mus musculus, Mast cell) amounted to 800 ± 500 nM.

With `O=C(c1cccc2ccccc12)c1c(-c2ccc(O)cc2)sc2cc(O)ccc12` [Example 2, 6-hydroxyphenyl-2-(p-hydroxyphenyl)-(benzo(B)thien-3-yl)(α-napthyl)methanone], the IC50 in assay [6] is above 200 µM; in assay [3] (setting [7]), 500 ± 200 nM; in assay [4] (setting [8]) it was above 10 µM; in assay [1] (setting [9]) it was 200 ± 100 nM; in assay [2] (setting [9]), 4.9 ± 2.4 µM.

Take `O=C(c1ccccc1)c1c(-c2ccc(O)cc2)sc2cc(O)ccc12` [Compound A]: the IC50 turned out to be 7100 ± 500 nM in assay [3] (Mus musculus, Mast cell); 0.3 µM in assay [4] (Mast cell); 500 nM in assay [1]; 4.9 µM in assay [2].

For the molecule `O=C(c1cccc(O)c1)c1c(-c2ccc(O)cc2)sc2cc(O)ccc12` [Example 11], the IC50 in assay [3] (Mus musculus, Mast cell) came to 2700 nM.

Turning to `COc1ccc(-c2sc3cc(OC)ccc3c2C(=O)c2cc(OC)c(O)c(OC)c2)cc1` [Example 7A], the IC50 in assay [3] (Mus musculus, Mast cell) amounted to 1500 ± 300 nM.
